From PubChem BioAssay AID248 (DTP/NCI, 2004)
“And” between values parts separate entries of the source, which are not always exact repeats. Equal entries are not always repeated. Toxic doses and inconclusive results are not listed. Cut-off read from the data, not from the text of the source: active = T/C of 150% or more; inactive = T/C below 125%.

Tested on: L1210 leukemia ip in BDF1 mice, survival T/C
Test: NCI In Vivo Anticancer Drug Screen. Data for tumor model L1210 Leukemia (intraperitoneal) in B6D2F1 (BDF1) mice
Conditions: endpoint: mean survival time, higher = longer survival
In short: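 Transplantable tumor model; survival measured in treated vs vehicle control mice. Value = treated/control.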

[1] = dose: 100.0 mg/kg/injection, schedule: Q04DX003 (ip), vehicle: saline
[2] = dose: 200.0 mg/kg/injection, schedule: Q04DX003 (ip), vehicle: saline
[3] = dose: 100.0 mg/kg/injection, schedule: Q01DX009 (ip), vehicle: Klucel (hydroxypropylcellulose) (HPC)
[4] = dose: 200.0 mg/kg/injection, schedule: Q01DX009 (ip), vehicle: Klucel (hydroxypropylcellulose) (HPC)
[5] = dose: 400.0 mg/kg/injection, schedule: Q01DX009 (ip), vehicle: Klucel (hydroxypropylcellulose) (HPC)
[6] = dose: 50.0 mg/kg/injection, schedule: Q04DX002 (ip), vehicle: Klucel (hydroxypropylcellulose) (HPC)
[7] = dose: 100.0 mg/kg/injection, schedule: Q04DX002 (ip), vehicle: Klucel (hydroxypropylcellulose) (HPC)
[8] = dose: 100.0 mg/kg/injection, schedule: Q01DX001 (ip), vehicle: carboxymethylcellulose (CMC)
[9] = dose: 200.0 mg/kg/injection, schedule: Q01DX001 (ip), vehicle: carboxymethylcellulose (CMC)
[10] = dose: 400.0 mg/kg/injection, schedule: Q01DX001 (ip), vehicle: carboxymethylcellulose (CMC)
[11] = dose: 50.0 mg/kg/injection, schedule: Q01DX009 (ip), vehicle: saline with Tween-80
[12] = dose: 100.0 mg/kg/injection, schedule: Q01DX009 (ip), vehicle: saline with Tween-80
[13] = dose: 100.0 mg/kg/injection, schedule: Q04DX003 (ip), vehicle: saline with Tween-80
[14] = dose: 200.0 mg/kg/injection, schedule: Q01DX009 (ip), vehicle: saline with Tween-80
[15] = dose: 200.0 mg/kg/injection, schedule: Q04DX003 (ip), vehicle: saline with Tween-80
[16] = dose: 400.0 mg/kg/injection, schedule: Q01DX009 (ip), vehicle: saline with Tween-80

Measured: T/C

CCOC(=O)c1nc(NC)sc1N
inactive: dose: 12.5 mg/kg/injection, schedule: Q01DX009 (ip), vehicle: saline 98 % of control | dose: 25.0 mg/kg/injection, schedule: Q01DX009 (ip), vehicle: saline 104 % of control | dose: 50.0 mg/kg/injection, schedule: Q01DX009 (ip), vehicle: saline 97 % of control and 98 % of control | [1] 102 % of control | [2] 100 % of control

O=C1c2ccccc2C(=O)c2ccccc21
inactive: [3] 102 % of control | [4] 88 % of control | [5] 100 % of control

CCOC(=O)NCC(CCN(C)C)(CN(C)C)c1cccc2ccccc12 (centres undefined)
inactive: [6] 102 % of control | [7] 106 % of control

Cc1cc2cc3cccnn3c2nn1
inactive: dose: 25.0 mg/kg/injection, schedule: Q04DX002 (ip), vehicle: saline 106 % of control | dose: 50.0 mg/kg/injection, schedule: Q04DX002 (ip), vehicle: saline 98 % of control | [7] 118 % of control | dose: 100.0 mg/kg/injection, schedule: Q04DX002 (ip), vehicle: saline 106 % of control

CC1CCC2(CC3C(CC(C4CCC5CC(O)CCC5(C)C4CC(=O)O)C3(C)O)O2)OC1 (centres undefined)
inactive: dose: 75.0 mg/kg/injection, schedule: Q04DX003 (ip), vehicle: saline 89 % of control | dose: 150.0 mg/kg/injection, schedule: Q04DX003 (ip), vehicle: saline 100 % of control | dose: 300.0 mg/kg/injection, schedule: Q04DX003 (ip), vehicle: saline 87 % of control

N#CCOC(=O)c1ccc[nH]1
inactive: dose: 10.0 mg/kg/injection, schedule: Q01DX001 (ip), vehicle: acetone 101 % of control | dose: 20.0 mg/kg/injection, schedule: Q01DX001 (ip), vehicle: acetone 100 % of control | dose: 40.0 mg/kg/injection, schedule: Q01DX001 (ip), vehicle: acetone 97 % of control

Cc1ccc2cccnc2c1
inactive: [8] 93 % of control | [9] 93 % of control | [10] 86 % of control

CC1=C/C(O)CC(=O)Cc2nc(co2)C(=O)N2CCC=C2C(=O)OC(C(C)C)C(C)/C=C\C(=O)NC/C=C\1 (centres undefined)
inactive: dose: 0.5 micrograms/kg/injection, schedule: Q01DX009 (ip), vehicle: saline 95 % of control | dose: 1.0 micrograms/kg/injection, schedule: Q01DX009 (ip), vehicle: saline 93 % of control | dose: 2.0 micrograms/kg/injection, schedule: Q01DX009 (ip), vehicle: saline 104 % of control | dose: 4.0 micrograms/kg/injection, schedule: Q01DX009 (ip), vehicle: saline 104 % of control

O=[N+]([O-])c1ccc(N/N=C/CCc2ccccc2O)c([N+](=O)[O-])c1
inactive: dose: 50.0 mg/kg/injection, schedule: Q01DX001 (ip), vehicle: saline 112 % of control | dose: 100.0 mg/kg/injection, schedule: Q01DX001 (ip), vehicle: saline 98 % of control | dose: 200.0 mg/kg/injection, schedule: Q01DX001 (ip), vehicle: saline 93 % of control | dose: 400.0 mg/kg/injection, schedule: Q01DX001 (ip), vehicle: saline 98 % of control

S=c1[nH]c(=S)c2[nH]c(=S)[nH]c2[nH]1
inactive: [3] 91 % of control | [4] 93 % of control | [5] 95 % of control

CC12CCC(OC3OC(CO)C(OC4OC(CO)C(O)C(O)C4O)C(O)C3O)CC1CCC1C2CCC2(C)C(C3=CC(=O)OC3)CCC12O (centres undefined)
inactive: dose: 10.0 mg/kg/injection, schedule: Q01DX009 (ip), vehicle: saline 102 % of control | dose: 20.0 mg/kg/injection, schedule: Q01DX009 (ip), vehicle: saline 116 % of control | dose: 40.0 mg/kg/injection, schedule: Q01DX009 (ip), vehicle: saline 102 % of control

CC(=O)N1CCCC(=O)CCCCCCC1=O
inactive: dose: 50.0 mg/kg/injection, schedule: Q04DX003 (ip), vehicle: saline 95 % of control | [1] 103 % of control | [2] 88 % of control

CC1(C)OC2OC(COC(=O)c3ccccc3)C(O)C2O1 (centres undefined)
inactive: dose: 50.0 mg/kg/injection, schedule: Q01DX001 (ip), vehicle: carboxymethylcellulose (CMC) 98 % of control | [8] 101 % of control | [9] 104 % of control | [10] 98 % of control

Cc1cc(C)c(C)c(OCC(=O)O)c1
inactive: dose: 75.0 mg/kg/injection, schedule: Q01DX001 (ip), vehicle: other 97 % of control | dose: 150.0 mg/kg/injection, schedule: Q01DX001 (ip), vehicle: other 97 % of control | dose: 300.0 mg/kg/injection, schedule: Q01DX001 (ip), vehicle: other 95 % of control

Cc1cc(C)c(C(=O)O)c(C)c1.[Hg]
inactive: dose: 3.0 mg/kg/injection, schedule: Q04DX003 (ip), vehicle: Klucel (hydroxypropylcellulose) (HPC) 96 % of control | dose: 6.0 mg/kg/injection, schedule: Q04DX003 (ip), vehicle: Klucel (hydroxypropylcellulose) (HPC) 91 % of control | dose: 12.0 mg/kg/injection, schedule: Q04DX003 (ip), vehicle: Klucel (hydroxypropylcellulose) (HPC) 86 % of control | dose: 12.5 mg/kg/injection, schedule: Q04DX003 (ip), vehicle: Klucel (hydroxypropylcellulose) (HPC) 88 % of control

S=C=Nc1ccc(Cl)c(Cl)c1
inactive: dose: 12.5 mg/kg/injection, schedule: Q01DX009 (ip), vehicle: saline with Tween-80 104 % of control | dose: 25.0 mg/kg/injection, schedule: Q01DX009 (ip), vehicle: saline with Tween-80 94 % of control | [11] 102 % of control

O=C(O)c1c(F)cccc1Cl
inactive: dose: 100.0 mg/kg/injection, schedule: Q04DX002 (ip), vehicle: saline with Tween-80 93 % of control | dose: 200.0 mg/kg/injection, schedule: Q04DX002 (ip), vehicle: saline with Tween-80 108 % of control | dose: 400.0 mg/kg/injection, schedule: Q04DX002 (ip), vehicle: saline with Tween-80 106 % of control

[N-]=[N+]=NC(c1ccccc1)S(=O)c1ccccc1 (centres undefined)
inactive: [7] 90 % of control | dose: 200.0 mg/kg/injection, schedule: Q04DX002 (ip), vehicle: Klucel (hydroxypropylcellulose) (HPC) 108 % of control

COc1ccccc1NC(N)=S
inactive: dose: 25.0 mg/kg/injection, schedule: Q01DX009 (ip), vehicle: Klucel (hydroxypropylcellulose) (HPC) 94 % of control | dose: 25.0 mg/kg/injection, schedule: Q04DX003 (ip), vehicle: Klucel (hydroxypropylcellulose) (HPC) 98 % of control | dose: 50.0 mg/kg/injection, schedule: Q01DX009 (ip), vehicle: Klucel (hydroxypropylcellulose) (HPC) 97 % of control | dose: 50.0 mg/kg/injection, schedule: Q04DX003 (ip), vehicle: Klucel (hydroxypropylcellulose) (HPC) 92 % of control | [3] 101 % of control | dose: 100.0 mg/kg/injection, schedule: Q04DX003 (ip), vehicle: Klucel (hydroxypropylcellulose) (HPC) 103 % of control

O=C1c2ccccc2-c2c1nc1ccccc1[n+]2[O-]
inactive: dose: 75.0 mg/kg/injection, schedule: Q01DX001 (ip), vehicle: saline sonified 89 % of control | dose: 150.0 mg/kg/injection, schedule: Q01DX001 (ip), vehicle: saline sonified 92 % of control | dose: 300.0 mg/kg/injection, schedule: Q01DX001 (ip), vehicle: saline sonified 92 % of control

O=C(O)c1cccc(Cl)c1.[Ni]
inactive: dose: 25.0 mg/kg/injection, schedule: Q04DX002 (ip), vehicle: Klucel (hydroxypropylcellulose) (HPC) 103 % of control | [6] 100 % of control | [7] 90 % of control

Cc1cc(N)n(C(N)=O)n1
inactive: [12] 102 % of control | [13] 106 % of control | [14] 110 % of control | [15] 107 % of control | [16] 108 % of control | dose: 400.0 mg/kg/injection, schedule: Q04DX003 (ip), vehicle: saline with Tween-80 109 % of control

COc1ccc(CCNC(=O)Cc2ccccc2)cc1OC
inactive: [11] 90 % of control | [12] 93 % of control | [13] 92 % of control | [14] 94 % of control and 96 % of control | [15] 92 % of control | [16] 99 % of control

Cc1ccc(S(=O)(=O)OCCOCCOc2ccc(C(C)(C)CC(C)(C)C)cc2)cc1
inactive: dose: 100.0 mg/kg/injection, schedule: Q01DX001 (ip), vehicle: acetone 97 % of control | [1] 98 % of control | dose: 200.0 mg/kg/injection, schedule: Q01DX001 (ip), vehicle: acetone 89 % of control | [2] 92 % of control | dose: 400.0 mg/kg/injection, schedule: Q01DX001 (ip), vehicle: acetone 87 % of control | dose: 400.0 mg/kg/injection, schedule: Q04DX003 (ip), vehicle: saline 91 % of control
